Where a name gives a salt, the structure may show the parent alone.
What was measured:
[1] = test system: mice; test: Tail-flick test in mice; type: in vivo, Male Charles River mice (Swiss Strain); details: Mus musculus, sc, 0.5 h; s.c.; 30 min pretreatment; quantal protection (reaction time doubled); read-out: ANALGESIA MOUSE TAIL-FLICK ED50
Protocol: B) Tail-flick test in mice
The methodology employed is based on that described by D'Amour and Smith, J. Pharmacol. Exp. Ther. 72, 74/1941.
Male Charles River mice (Swiss Strain), 22-34 g body weight were used. Animals were allowed food and water ad libitum and were randomized into groups of 10 prior to experimentation.
Test compounds were dissolved in either distilled water or distilled water plus 0.1M AMS and administered by the subcutaneous route in a final volume of 10 ml/Kg. Control animals received 10 ml/kg of the appropriate vehicle alone. Following a pretreatment period of 30 min., the mice were again placed under the heat source and the reaction tine re-determined.
Percentage quantal protection was determined as the number of mice in which the reaction time was doubled compared to pretreatment values, expressed as a percentage of the total number of mice in the group.

[2] = test system: mice; test: P-phenylquinone-induced abdominal writhing test in mice; type: in vivo, Male Charles River mice (Swiss Strain); details: Mus musculus, sc, 20 min; s.c.; 20 min pretreatment; p-phenylquinone 2 mg/Kg i.p.; graded protection; read-out: ANALGESIA MOUSE WRITHING ED50
Protocol: A) P-phenylquinone-induced abdominal writhing test in mice
The methodology employed is based on that described by Sigmund et al, Proc. Soc. Exptl. Biol. 95, 729/1957, modified by Milne and Twomey, Agents and Actions, 10, 31/1980.
Male Charles River mice (Swiss Strain), 25-36 g body weight, were used. Animals were allowed food and water ad libitum and were randomized into groups of 10 prior to experimentation. Test compounds were dissolved in either distilled water or distilled water plus 0.1M AMS, and administered by the subcutaneous route in a final volume of 10 ml/Kg. Control animals received 10 ml/Kg of the appropriate vehicle alone. Following a pretreatment period of 20 min., mice were injected intraperitoneally with p-phenylquinone, 2 mg/Kg at 37° C. in a final volume of […]. […] During this period the number of abdominal writhing responses per animal were recorded where writhing consists of an intermittent contraction of the abdomen associated with hind leg extension.
The degree of antinociceptive protection afforded by the test compound was determined as the mean number of writhing responses observed in the treated group (T) expressed as a percentage of the mean number of writhing responses in the control group (C) according to the following formula:
[1-(T/C]×100%=% graded protection

Structure (SMILES) | ED50 [1] [mg/kg] | ED50 [2] [mg/kg]
O=C(Cc1ccc(Cl)c(Cl)c1)N1CCCC[C@H]1CN1CC=CC1 [Example 1, (2S)-1-(3,4-dichlorophenyl)acetyl-2-(3-pyrrolin-1-yl)methyl piperidine hydrochloride] | 0.045 | 0.005
CC1(C)CCCN(C(=O)Cc2ccc(Cl)c(Cl)c2)C1CN1CC=CC1 (centres unmarked) [Example 2, 1-(3,4-dichlorophenyl)acetyl-2-(3-pyrrolin-1-yl)methyl-3,3-dimethyl piperidine hydrochloride] | 0.021 | 0.006
CC1(C)CCCN(C(=O)Cc2ccc(C(F)(F)F)cc2)C1CN1CC=CC1 (centres unmarked) [Example 3, 1-(4-trifluoromethylphenyl)acetyl-2-(3-pyrrolin-1-yl)methyl-3,3-dimethyl piperidine hydrochloride] | 0.015 | 0.006
CC1(C)CCCN(C(=O)Cc2ccc3c(c2)CCCC3)C1CN1CC=CC1 (centres unmarked) [Example 4, 1-(5,6,7,8-tetrahydronapht-2-yl)acetyl-2-(3-pyrrolin-1-yl) methyl-3,3-dimethyl piperidine hydrochloride] | 0.193 | 0.025
O=C(Cc1ccc(Cl)c(Cl)c1)N1CCc2ccccc2C1CN1CC=CC1 (centres unmarked) [Example 5, 1-(3-pyrrolin-1-yl)methyl-2-(3,4-dichlorophenyl)acetyl-1,2,3,4-tetrahydroisoquinoline hydrochloride] | 0.015 | 0.005
CC1(C)CN(C(=O)Cc2ccc(Cl)c(Cl)c2)C(CN2CC=CC2)c2ccccc21 (centres unmarked) [Example 6, 1-(3-pyrrolin-1-yl)methyl-2-(3,4-dichlorophenyl)acetyl-4,4-dimethyl-1,2,3,4-tetrahydroisoquinoline hydrochloride] | 0.275 | 0.047
O=C(Cc1ccc(Cl)c(Cl)c1)N1CCc2sccc2C1CN1CC=CC1 (centres unmarked) [Example 7, 4-(3-pyrrolin-1-yl)methyl-5-(3,4-dichlorophenyl)acetyl-4,5,6,7-tetrahydrothieno[3,2-c]pyridine hydrochloride hemihydrate] | 0.008 | 0.002
CC1(C)CN(C(=O)Cc2ccc(Cl)c(Cl)c2)C(CN2CC=CC2)c2ccsc21.Cl (centres unmarked) [Example 8, 4-(3-pyrrolin-1-yl)methyl-5-(3,4-dichlorophenyl)acetyl-7,7-dimethyl-4,5,6,7-tetrahydrothieno[3,2-c]pyridine hydrochloride] | 0.55 | 0.04
O=C1CCCc2cc(CC(=O)N3CCCC[C@H]3CN3CC=CC3)ccc21 [Example 9, (2S)-1-[1-oxo-3,4-dihydro-(2H)-napht-6-yl]acetyl-2-(3-pyrrolin-1-yl)methyl piperidine hydrochloride] | 0.316 | 0.023
CC1(C)CCCN(C(=O)Cc2ccc3c(c2)CCCC3=O)C1CN1CC=CC1 (centres unmarked) [Example 10, 1-[1-oxo-3,4-dihydro-(2H)-napht-6-yl]acetyl-2-(3-pyrrolin-1-yl)methyl-3,3-dimethyl piperidine hydrochloride] | 0.594 | 0.053

Reference: US5366981A, “N-acyl-substituted azacyclic compounds, processes for their preparaion, and their use as pharmaceuticals” (Dr Lo Zambeletti S.p.A., priority 1989, dated 1994)
